Data from PMC4890880 (ACS infectious diseases, 2016).
Like-named read-outs stand apart in the source and are kept apart here.

Assays:
[1] = system: Plasmodium cynomolgi exoerythrocytic-stage small (hypnozoites) and large (liver stage schizonts) parasites; test: P. cynomolgi liver assay in primary hepatocytes; conditions: for inhibition at 0.1 µM / inhibition at 1 µM / inhibition at 10 µM: Plasmodium cynomolgi, Hepatocyte
[2] = system: P. falciparum 3D7 parasites; test: Asexual erythrocytic-stage SYBR Green I proliferation assay, 1536-well; format: cell-based, Plasmodium falciparum; conditions: Plasmodium falciparum
Huh7.5.1 cells = test: Cytotoxicity in Huh7.5.1 cells (Figure S4); conditions: at 10 μM
[3] = system: Plasmodium berghei (Pb-Luc) exoerythrocytic-stage parasites; test: microbe, parasite or virus in culture
HepG2-A16-CD81EGFP cells [4] = test: cells; conditions: Homo sapiens; for IC50: HepG2, read-out: Tox IC50
[5] = biological target: QuantiLum Recombinant Luciferase (Photinus pyralis, UniProt P08659); test: Bioluminescence quantification of compound luciferase inhibition
Chain of QuantiLum Recombinant Luciferase (P08659 whole entry): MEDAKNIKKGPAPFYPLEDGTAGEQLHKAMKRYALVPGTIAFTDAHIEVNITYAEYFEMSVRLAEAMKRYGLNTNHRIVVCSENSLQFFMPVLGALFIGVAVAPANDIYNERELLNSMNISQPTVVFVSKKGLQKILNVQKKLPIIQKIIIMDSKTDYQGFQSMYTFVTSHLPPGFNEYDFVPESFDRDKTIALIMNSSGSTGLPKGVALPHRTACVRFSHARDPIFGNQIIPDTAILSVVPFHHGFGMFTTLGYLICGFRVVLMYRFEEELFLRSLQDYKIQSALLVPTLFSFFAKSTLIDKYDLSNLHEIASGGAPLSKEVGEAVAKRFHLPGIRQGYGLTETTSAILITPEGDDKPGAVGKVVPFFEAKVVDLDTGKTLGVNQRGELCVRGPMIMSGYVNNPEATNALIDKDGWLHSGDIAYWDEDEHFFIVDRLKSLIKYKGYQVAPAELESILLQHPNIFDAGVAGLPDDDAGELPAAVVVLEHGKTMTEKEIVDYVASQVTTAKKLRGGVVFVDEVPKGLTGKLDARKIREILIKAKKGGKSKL

[6] = system: P. berghei expressing GFP (Pb-GFP) in Huh7.5.1 cells; test: Flow cytometry assay of traversal, invasion, EEF frequency and EEF development; format: cell-based, Plasmodium berghei; conditions: 2 hours post infection; 1 μM
[7] = system: Pb-Luc exoerythrocytic-stage parasites in Huh7.5.1 cells; test: Pb-Luc time of action assay (modified 384-well luciferase assay); conditions: Plasmodium berghei
[8] = only compound of the set tested with exposure; cited from earlier work
HepG2-A16-CD81EGFP cells [9] = system: HepG2-A16-CD81EGFP cells
[10] = system: P. falciparum Dd2 erythrocytic stage; test: Dd2 erythrocytic-stage assay (SYBR Green) for DOS compounds; conditions: for IC50: read-out: Erythrocytic-stage (Pf Dd2) IC50, Figure 4b
[11] = system: Plasmodium berghei (Pb-Luc) exoerythrocytic-stage parasites
Plasmodium DHODH enzyme = biological target: T1, Plasmodium DHODH enzyme (Plasmodium falciparum, UniProt Q08210); test: DHODH assay; conditions: data not shown
T1 sequence (Q08210 24-569): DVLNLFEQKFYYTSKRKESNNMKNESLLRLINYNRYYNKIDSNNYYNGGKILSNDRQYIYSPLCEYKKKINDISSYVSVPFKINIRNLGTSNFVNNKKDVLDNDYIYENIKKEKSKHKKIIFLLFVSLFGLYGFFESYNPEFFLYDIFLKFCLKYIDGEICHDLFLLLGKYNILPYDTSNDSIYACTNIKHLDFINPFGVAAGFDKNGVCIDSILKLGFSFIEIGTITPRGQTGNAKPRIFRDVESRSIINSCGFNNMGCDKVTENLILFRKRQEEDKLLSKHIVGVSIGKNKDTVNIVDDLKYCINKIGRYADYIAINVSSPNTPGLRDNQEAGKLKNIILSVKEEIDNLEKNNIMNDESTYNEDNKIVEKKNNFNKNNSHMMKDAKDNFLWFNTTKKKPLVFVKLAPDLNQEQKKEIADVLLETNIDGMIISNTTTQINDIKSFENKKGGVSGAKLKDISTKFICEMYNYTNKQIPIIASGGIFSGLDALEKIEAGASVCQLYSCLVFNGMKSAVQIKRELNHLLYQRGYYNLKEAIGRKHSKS

[12] = read-out: % inhibition normalized to untreated control, Large
[13] = read-out: % inhibition normalized to untreated control, Small
[14] = read-out: Inhibition% @ 50 uM rep1
[15] = read-out: Inhibition% @ 50 uM rep2
[16] = read-out: PbLuc IC50, dose response, 1/3 dilutions, max conc. 10 or 50 uM, unit inferred
[17] = HepG2, read-out: HepG2 Tox% @ 50 uM rep1
[18] = Huh-7.5.1, read-out: Pb-Luc IC50, Treatment: 1
[19] = Huh-7.5.1, read-out: Pb-Luc IC50, Treatment: 2
[20] = Huh-7.5.1, read-out: Pb-Luc IC50, Treatment: 3
[21] = Huh-7.5.1, read-out: Pb-Luc IC50, Treatment: 4
[22] = Huh-7.5.1, read-out: Pb-Luc IC50, Treatment: 5
[23] = Huh-7.5.1, read-out: Pb-Luc IC50, Treatment: 6
[24] = 3D7, read-out: P. falciparum (blood) IC50, Table S1, validation set of 50 antimalarials
[25] = read-out: P. berghei (liver) IC50, Table S1, validation set of 50 antimalarials, Pb-Luc
[26] = read-out: Exoerythrocytic-stage Pb-Luc IC50, Figure 4b, first assay
[27] = read-out: Exoerythrocytic-stage Pb-Luc IC50, Figure 4b, second assay (value in parentheses)

Q: Which results are given for COc1cccc(C=Cc2nc(=O)c3ccccc3o2)c1OC [MMV666693]?
A: inhibition at 0.1 µM [1, 12]: 22%; inhibition at 1 µM [1, 12]: -3%; inhibition at 10 µM [1, 12]: 15%; inhibition at 0.1 µM [1, 13]: 29%; inhibition at 1 µM [1, 13]: 16%; inhibition at 10 µM [1, 13]: 30%; IC50 ([2]; 3D7, read-out: erythrocytic-stage P. falciparum IC50, values reported in Table S1, Additional File 1): < 100 nM; cytotoxicity in Huh7.5.1 cells (Huh7.5.1 cells): slight cytotoxicity; inhibition at 50 µM [3, 14]: 102%; inhibition at 50 µM [3, 15]: 103%; IC50 [3, 16]: 9.82 nM; inhibition at 10 µM ([3]; read-out: PbLuc max inhibition (%) @ 10 uM): 108%; cytotoxicity at 50 µM (HepG2-A16-CD81EGFP cells [4]; [17]): -0.938%; cytotoxicity at 50 µM (HepG2-A16-CD81EGFP cells [4]; HepG2, read-out: HepG2 Tox% @ 50 uM rep2): 7%; IC50 (HepG2-A16-CD81EGFP cells [4]): > 10000 nM; inhibition at 10 µM (HepG2-A16-CD81EGFP cells [4]; HepG2, read-out: Tox max inhibition (%) @ 10 uM): 123%; IC50 [5]: 5330 nM; Emax ([5]; read-out: LucInhib max inhibition): 89%; effect on sporozoite invasion [6]: not affected; effect on sporozoite traversal of hepatocytes [6]: slight effect; IC50 [7, 18]: 172 nM; IC50 [7, 19]: 20 nM; IC50 [7, 20]: 297 nM; IC50 [7, 21]: 15 nM; IC50 [7, 22]: 16 nM; IC50 [7, 23]: 12 nM

Q: With O=C1C(O)=C([C@H]2CC[C@H](c3ccc(Cl)cc3)CC2)C(=O)c2ccccc21 [Atovaquone, reference compound] as the compound, how does the IC50 [2, 24] read?
A: < 0.4 nM

Q: What about the IC50 [3, 25] of the same compound?
A: 0.25 nM

Q: And the IC50 [7, 18]?
A: 34 nM

Q: What about the IC50 [7, 19] of the same compound?
A: 2.8 nM

Q: And the IC50 [7, 20]?
A: 7.9 nM

Q: What about the IC50 [7, 21] of the same compound?
A: 1.6 nM

Q: What about the IC50 [7, 22] of the same compound?
A: 1.1 nM

Q: And the IC50 [7, 23]?
A: 0.9 nM

Q: With Brc1ccc(Nc2nc3ccccc3nc2Nc2ccc(Br)cc2)cc1 [MMV007224] as the compound, how does the “pharmacokinetic exposure in vivo” value [8] read?
A: any pharmacokinetic exposure in vivo

Q: And the inhibition at 0.1 µM [1, 12]?
A: 23%

Q: What about the inhibition at 1 µM [1, 12] of the same compound?
A: 43%

Q: And the inhibition at 10 µM [1, 12]?
A: 96%

Q: And the inhibition at 0.1 µM [1, 13]?
A: 30%

Q: And the inhibition at 1 µM [1, 13]?
A: 20%

Q: And the inhibition at 10 µM [1, 13]?
A: 67%

Q: And the “activity against small or large forms” value ([1]; at 10 μM, in words)?
A: moderate activity

Q: And the inhibition at 50 µM [3, 14]?
A: 103%

Q: What about the inhibition at 50 µM [3, 15] of the same compound?
A: 103%

Q: And the IC50 [3, 16]?
A: 170 nM

Q: What about the inhibition at 50 µM ([3]; read-out: PbLuc max inhibition (%) @ 50 uM) of the same compound?
A: 101%

Q: And the cytotoxicity at 50 µM (HepG2-A16-CD81EGFP cells [4]; [17])?
A: 100%

Q: What about the IC50 (HepG2-A16-CD81EGFP cells [4]) of the same compound?
A: 1940 nM

Q: And the inhibition at 50 µM (HepG2-A16-CD81EGFP cells [4]; HepG2, read-out: Tox max inhibition (%) @ 50 uM)?
A: 99%

Q: With O=C(Nc1cccc(F)c1)N1CCCCN2[C@H](CO)[C@@H](c3ccc(C#Cc4cccnc4)cc3)[C@@H]2C1 [BRD47390] as the compound, how does the CC50 (HepG2-A16-CD81EGFP cells [9]) read?
A: > 10000 nM

Q: What about the IC50 [10] of the same compound?
A: 2580 nM

Q: And the IC50 [11, 26]?
A: 360 nM

Q: What about the IC50 [11, 27] of the same compound?
A: 230 nM

Q: With CS(=O)(=O)N1[C@H](C#N)[C@H](c2ccc(C#Cc3cccc(F)c3)cc2)[C@H]1CO [BRD0326] as the compound, how does the CC50 (HepG2-A16-CD81EGFP cells [9]) read?
A: > 10000 nM

Q: And the erythrocytic-stage activity ([10]; in words)?
A: no erythrocytic-stage activity

Q: And the IC50 [10]?
A: > 10000 nM

Q: What about the “activity in a DHODH assay” value (Plasmodium DHODH enzyme) of the same compound?
A: inactive

Q: And the IC50 [11, 26]?
A: 300 nM

Q: And the IC50 [11, 27]?
A: 150 nM

Q: What about the IC50 ([11]; read-out: Pb-Luc IC50, Figure 4a, stereoisomers tested in dose response) of the same compound?
A: 152 nM

Q: And the IC50 ([11]; read-out: Pb-Luc IC50, Figure 4a, stereoisomers tested in dose response, listed as BRD0326 SSS)?
A: < 1000 nM

Q: Which IC50 [10] does the source give for CCCNC(=O)N1[C@H](CO)[C@H](c2ccc(C#Cc3cccc(F)c3)cc2)[C@@H]1C#N [BRD9781] here?
A: 8550 nM

Q: And the “activity in a DHODH assay” value (Plasmodium DHODH enzyme)?
A: inactive

Q: And the IC50 [11, 26]?
A: 80 nM

Q: What about the IC50 [11, 27] of the same compound?
A: 40 nM

Q: And the IC50 ([11]; read-out: Pb-Luc IC50, Figure 4a, stereoisomers tested in dose response, listed as BRD9781/7539 series SRR)?
A: 39 nM

Q: For CCc1nc(N)nc(N)c1-c1ccc(Cl)cc1 [Pyrimethamine, reference compound], which IC50 [2, 24] is on record?
A: 19.9 nM

Q: What about the IC50 [3, 25] of the same compound?
A: 5.1 nM

Q: What about the IC50 [7, 18] of the same compound?
A: 122 nM

Q: What about the IC50 [7, 19] of the same compound?
A: 21 nM

Q: What about the IC50 [7, 20] of the same compound?
A: 252 nM

Q: And the IC50 [7, 21]?
A: 19.7 nM

Q: And the IC50 [7, 22]?
A: 18.8 nM

Q: What about the IC50 [7, 23] of the same compound?
A: 18.9 nM

Q: What does the source list for CCCNC(=O)N1[C@H](C#N)[C@H](c2ccc(C#Cc3cccc(F)c3)cc2)[C@H]1CO [BRD7539]?
A: IC50 [10]: 10 nM; IC50 [11, 27]: 2 nM; IC50 ([11]; read-out: Pb-Luc IC50, Figure 4a, stereoisomers tested in dose response, listed as BRD9781/7539 series SSS): 2 nM
